The source of these data is patent US20220304936A1, “DRUG-POLYMER AMORPHOUS SOLID DISPERSIONS USING LINEAR POLY(ACRYLIC ACID) POLYMERS” (LUBRIZOL ADVANCED MATERIALS, INC., priority 2019, published 2022).

Converted amounts (≈) assume the structure as drawn.

Data set [1] is described as follows: Physical form and Tg of formulations by XRPD and/or DSC. It counts as physicochemical. Particulars: as prepared. As to the method: The physical form of the product is identified visually (e.g., solid powder) and by XRPD and/or DSC (to assess amorphous or crystalline state). Tg values are estimates from DSC curves.
X-ray Powder Diffraction (XRPD) is performed with a Panalytical X'Pert^3 Powder XRPD. FIGS. 8-10 show XRPD plots for various formulations made using ITZ and PAA-8. In FIG. 8, plots for ITZ alone (Neat IZT, Formulation F25), a physical mixture of 15% ITZ and 85% PAA (PM 15%, Formulation F26), and a spray-dried solid dispersion of 15% ITZ and 85% PAA (ASD 15%, Formulation F2), are shown. In FIG. 9, plots for ITZ alone (Neat IZT, Formulation F25), a physical mixture of 30% ITZ and 70% PAA (PM 30%, Formulation F27), and a spray-dried solid dispersion of 30% ITZ and 70% PAA (ASD 30%, Formulation F3), are shown. In FIG. 10, plots for ITZ alone (Neat IZT, Formulation F25), a physical mixture of 50% ITZ and 50% PAA (PM 50%, Formulation F28), and a spray-dried solid dispersion of 50% ITZ and 50% PAA (ASD 50%, Formulation F5), are shown.
XRPD is performed with Si zero background holders. The 2-theta position is performed with a Panalytical Si reference standard disc. The XRPD instrument configuration is Bragg-Brentano geometry.
Differential Scanning calorimetry (DSC) is performed with a Mettler-Toldeo DSC-1 instrument (no modulated DSC software) using a sample amount of 5-10 mg. […]

For data set [2] the following is noted: model APIs; cited from earlier work.
The nature of data set [3]: Solubility limit of drug in equilibrated dissolution media. It counts as physicochemical. Particulars: equilibrated dissolution media (0.1 N HCl), simulated gastric fluid; 750 mL 0.1 N HCl, 37° C.
The conditions of data set [4]: cited from earlier work.

`CC(C)c1nc(CN(C)C(=O)N[C@H](C(=O)N[C@@H](Cc2ccccc2)C[C@H](O)[C@H](Cc2ccccc2)NC(=O)OCc2cncs2)C(C)C)cs1` [Ritonavir, 5-thiazolylmethyl ((alphaS)-alpha-((1S,3S)-1-hydroxy-3-((2S)-2-(3-((2-isopropyl-4-thiazolyl)methyl)-3-methylureido)-3-methylbutyramido)-4-phenylbutyl)phenethyl)carbamate]: in data set [1], the Form result is given as “Crystalline”. Also, the “Glass transition temperature, Tg (° C.)” value in data set [2] is 45 °C.
The solubility is the concentration that dissolves in the medium under given conditions. For orientation: Aqueous solubility means how much of the substance goes into solution per volume. As to `CCC(C)n1ncn(-c2ccc(N3CCN(c4ccc(OCC5COC(Cn6cncn6)(c6ccc(Cl)cc6Cl)O5)cc4)CC3)cc2)c1=O` [Itraconazole, 1-(butan-2-yl)-4-{4-[4-(4-{[(2R, 4S)-2-(2,4-dichlorophenyl)-2-(1H-1,2,4-triazol-1-ylmethyl)-1,3-dioxolan-4-yl]methoxylphenyl)piperazin-1-yl]phenyl}-4,5-dihydro-1H-1,2,4-triazol-5-one], the solubility in data set [3] is 4 to 6 µg/mL (≈ 5.67 to 8.5 µM). The Aqueous solubility in data set [4] was 0.001 to 0.004 µg/mL. Besides, in data set [4] (water), the solubility in water is 0.001 to 0.004 µg/mL.
